{"source": "paper PMC7870626", "about": "“Neurotoxicity and underlying cellular changes of 21 mitochondrial respiratory chain inhibitors” (Archives of Toxicology, 2021)", "system": "LUHMES cells", "assay": "NeuroGlycoTest (metabolic glycoengineering, KE3 assay)", "type": "cell-based, human", "conditions": "d6 LUHMES, 6 h", "experimental": "The NeuroGlycoTest was performed as previously described (Kranaster et al. [2020]). In brief, d6 LUHMES cells were co-treated for 6 h with the respiratory chain inhibitors together with 10 µM azide-tagged mannosamine precursor sugar (Ac4ManNAz), synthesized according to published procedures (Saxon et al. [2002]). After PBS-washing, a dibenzylcyclooctyne-PEG4-biotin (DBCO-biotin) [100 μM] (Jena Bioscience, Jena, Germany) solution was added for 20 min at 37 °C to label the incorporated azide-tagged sialic acids (= SiaAz).\nFor detection of MGE-sialoproteins, cells in 6-well plates were lyzed in Laemmli buffer and boiled for 5 min at 95 °C. […] Relative band intensity was quantified using a self-developed image evaluation software. […] At least two blots from independent experiments were quantified.\nFor detection of neurite MGE, cells in 8-well µ-slides were further incubated with a mixture of streptavidin-Alexa Fluor 488 [8 μg/ml] […] The processed images were analyzed using the SUIKER software (Karreman et al. [2019]) that simultaneously, from the same image, detected and quantified viability (based on the Hoechst staining), neurite area (based on the Calcein staining) and neurite MGE sialic acids (based on the streptavidin-Alexa Fluor 488 label). […]", "data": [{"smiles": "CCCCCC[C@H]1C(=O)O[C@H](C)[C@H](NC(=O)c2cccc(NC=O)c2O)C(=O)O[C@@H](C)[C@@H]1OC(=O)CC(C)C", "note": "[Antimycin A]", "values": [{"measurement": "Reduction of neurite area in the NeuroGlycoTest", "setting": "highest non-cytotoxic concentration", "value": "more than 25%"}, {"measurement": "Neurite MGE signal / proteostasis disturbance (in words)", "setting": "highest non-cytotoxic concentration (antimycin A 50 µM)", "value": "strong decrease"}]}]}
